US20210267992A1, “5-ACETAMIDOMETHYL-OXAZOLIDINONE DERIVATIVES FOR USE IN THE TREATMENT OF CANCER” (Varsity Pharmaceuticals Limited, priority 2018, published 2021)
Entries after “also recorded” stand apart in the source; their conditions may differ.

Tests used:
[1] = test system: BRCA1 deficient ovarian cancer cells, UWB1.289; experiment: BrdU proliferation assay, single drugs after cisplatin; type: cell-based; details: cisplatin 1 μM for 24 hours followed by the drug alone for 6 days, result in words
Experimental: (§1) Methods • Cell morphology, viability and proliferation rate was assessed by visual and counting method. • Day 0: Cells were split and around 1000 cells/well were seeded in normal complete media. • Day 1: Cisplatin was added at 1 μM to the test and controls wells. Untreated cells were left as control. • Day 2: medium containing cisplatin was discarded and new fresh media containing bromodeoxyuridine (BrdU) and the drugs at the concentrations shown in table 1, below, was added. • Day 6: medium was discarded, and cells fixed. BrdU assay was performed according to the manufacturer. • Controls comprised cells without BrdU (Blank), untreated cells (UN) and Cisplatin treated cells for 24 hours only (CIS). • All experiments were conducted in triplicate.
(§2) BrdU Proliferation Assay • After 6 days of incubation with drugs, the media was discarded, and cells were fixed for 30 minutes, at room temperature, with FixDenat Solution. • FixDenat Solution was then removed and substituted with Anti-BrdU-POD working solution for 2 hours at room temperature. • Plates were then washed 3 times with Washing buffer. • Substrate solution was added. • The reaction was stopped by adding H2SO4 and immediately read at 450 nm.
Data was analysed using Excel and Prism software. The average of the absorbances and the standard error were calculated using the technical triplicate for each condition.

UWB1.289 cell line = experiment: BrdU proliferation assay, combinations of PARPis and ATR inhibitors after cisplatin; type: cell-based; details: for proliferation in combination with Aurothiomalate (ATM), compared with the gold complex alone: then Aurothiomalate (ATM) plus the labelled drug for 6 days; for proliferation in combination with auranofin, compared with the gold complex alone: then auranofin plus the labelled drug for 6 days
Experimental: as §1, §2
The methods were the same as described in example 1 except that the new fresh media added on day 2 contained bromodeoxyuridine (BrdU) and the drugs at the concentrations shown in table 2, below. All possible combinations of concentrations for compounds A and B were tested.

[2] = test system: MDA-MB-436 (BRCA1 mutation) breast cancer cell xenograft; experiment: MDA-MB-436 (BRCA1 mutation) breast cancer cell xenograft experiment; type: in vivo; details: mice, 100 mg/kg BID orally, MDA-MB-436 xenograft
Experimental: The MDA-MB-436 tumour cell line was maintained in vitro as monolayer culture in DMEM medium modified supplemented with 10% heat inactivated foetal bovine serum at 37° C. in an atmosphere of 5% CO2 in air. The tumour cells were routinely sub-cultured once a week by trypsin-EDTA treatment, not to exceed 4-5 passages. The cells growing in an exponential growth phase were harvested and counted for tumour inoculation.
All mice were inoculated subcutaneously on the right flank with MDA-MB-436 tumour cells (1×10^7) in 0.1 ml of DMEM with Matrigel mixture (1:1 ratio) for tumour development. The treatment started when the mean tumour size reached is approximately 100-150 mm^3. Mice were then be assigned to groups such that the mean tumour volume is the same for each treatment group. The treatments were administered to the tumour-bearing mice orally at 12 hour intervals.
560 mg linezolid was dissolved in 1.4 ml ethanol and 12.6 ml PEG400. The solution was vortexed and sonicated with high energy ultrasonic probe to get a uniform solution. The resultant solution was used for 1 day.
The measurement of tumour size was conducted twice weekly with a calliper and recorded. The tumour volume (mm3) was estimated using the formula: TV=a×b^2/2, where “a” and “b” are long and short diameters of a tumour, respectively.

[3] = UWB1.289, cisplatin 1 μM 24 hours, result in words

With `CC(=O)NC[C@H]1CN(c2ccc(N3CCOCC3)c(F)c2)C(=O)O1` [linezolid] the “reduction of proliferation of the cancer cells (BrdU absorbance)” value (“reduction … (BrdU absorbance)” below) [1] was “reduce proliferation of cancer cells when used alone”, the “proliferation in combination with Aurothiomalate (ATM), compared with the gold complex alone” value (UWB1.289 cell line; [3]) was “particularly marked improvement over the gold complexes when used alone; also recorded: particularly noticeable synergistic effect” and the “proliferation in combination with auranofin, compared with the gold complex alone” value (UWB1.289 cell line; [3]) was “particularly marked improvement over the gold complexes when used alone”. The “synergistic effect on proliferation when used with a PARPi” value (UWB1.289 cell line; UWB1.289, combination with a PARPi, result in words) was “synergistic effect”, the percentage proliferation (UWB1.289 cell line; UWB1.289, linezolid 100 nM together with Aurothiomalate (ATM) 30 nM, after cisplatin 1 μM 24 hours) was 2% and the “proliferation reduction compared with AZD6738” value (UWB1.289 cell line; inventors' conclusion, result in words) was “equivalent to proliferation reduction achieved by AZD6738”. The “reduced tumour size compared to the control group” value [2] was 38%.

With `O=C(c1cc(Cc2n[nH]c(=O)c3ccccc23)ccc1F)N1CCN(C(=O)C2CC2)CC1` [Olaparib] the “reduction … (BrdU absorbance)” value [1] was “effectively reduce proliferation”.

For `CNCc1ccc(-c2[nH]c3cc(F)cc4c3c2CCNC4=O)cc1` [rucaparib], the “reduction … (BrdU absorbance)” value [1] was “effectively reduce proliferation”.

`O=C(O)CC([S-])C(=O)O.[Au+]` (stereo not shown) [ATM, Aurothiomalate] was tested, and the “reduction … (BrdU absorbance)” value [1] was “effectively reduce proliferation”.

For `C[C@@H]1COCCN1c1cc(C2([S@](C)(=N)=O)CC2)nc(-c2cc[nH]c3nccc2-3)n1` [AZD, AZD6738], the “proliferation in combination with Aurothiomalate (ATM), compared with the gold complex alone” value (UWB1.289 cell line; [3]) was “particularly marked improvement over the gold complexes when used alone”, the “proliferation in combination with auranofin, compared with the gold complex alone” value (UWB1.289 cell line; [3]) was “particularly marked improvement over the gold complexes when used alone” and the “proliferation in combination with olaparib, compared with olaparib alone” value (UWB1.289 cell line; UWB1.289, cisplatin 1 μM 24 hours, then olaparib plus the labelled drug for 6 days, result in words) was “further decreased proliferation when compared to the degree of proliferation observed for olaparib alone”.

With `CC(=O)OC[C@H]1O[C@@H]([S-])[C@H](OC(C)=O)[C@@H](OC(C)=O)[C@@H]1OC(C)=O.CCP(CC)CC.[Au+]` [auranofin] the “reduction … (BrdU absorbance)” value [1] was “effectively reduce proliferation”.

For `NC(=O)c1cccc2cn(-c3ccc([C@@H]4CCCNC4)cc3)nc12` [niraparib], the “reduction … (BrdU absorbance)” value [1] was “effectively reduce proliferation”.

`OC[C@H]1O[C@H]([S-])[C@H](O)[C@@H](O)[C@@H]1O.[Au+]` [ATG, Aurothioglucose] was tested, and the “reduction … (BrdU absorbance)” value [1] was “effectively reduce proliferation”.
